This note sets out measurements from publication doi:10.1101/2025.11.04.686469, “Discovery of Host-Directed Small Molecules with Broad Anti-Leishmanial Efficacy” (bioRxiv, 2025).

Molecules are shown by their SMILES. Values after ≈ are worked out from the molar mass of the structure shown. Read-outs that look alike come from different tables or passages of the source.

The test system of series [1] is extracellular L. donovani promastigotes. Put plainly: Effect of compounds on promastigote viability (resazurin assay). It counts as cell-based, Leishmania donovani. The note with it: for MIC50: Leishmania donovani, 72-hour incubation. Here is the method:
(§1) The effect of compounds on extracellular promastigotes was evaluated using a resazurin-based assay as described previously. In short, late log phase Leishmania promastigotes were seeded in a 96 well plate at 1 x 10^5 parasites per well and treated with drugs (0.5 – 200 μM) for 72 hours at 25°C. Ten microliters of resazurin (0.02% w/v) were added to the treated parasites to achieve a final concentration of 0.002% w/v and incubated for 24 hours. Viability of the promastigotes was assessed by fluorescence (excitation 544 nm, emission 590 nm, SpectraMax M2, Molecular Devices).

Series [2] in a line: Effect of compounds on host cell viability (MTT). It counts as cell-based. The note with it: human. Put shortly: (§2)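 THP-1 cells were differentiated with 150 nM PMA for 72 h, then exposed to compounds at 1–50 μM for 24 h; selected compounds were also run at 1–300 μM for 72 h. MTT at 0.5 mg/mL was added for 2 h at 37 °C, and formazan absorbance was read at 560 nm minus 670 nm.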

The next series deals with THP-1 macrophages. Put plainly: Effect of compounds on host cell viability (MTT). It counts as cell-based. In outline: as §2
The subject of series [3] is extracellular L. mexicana promastigotes. Put plainly: Effect of compounds on promastigote viability (resazurin assay). The class given is cell-based, Leishmania mexicana. The note with it: Leishmania mexicana, 72-hour incubation. Here is the method:
as §1
Background: Alamar Blue is a resazurin reagent that responds to reducing activity.

Series [4] deals with intracellular L. donovani amastigotes. As to the kind of experiment: Luminescent-based evaluation of intracellular anti-leishmanial activity in THP-1 macrophages. The class given is cell-based, Leishmania donovani. As to conditions: for IC50: Leishmania donovani, THP-1, THP1 macrophages, luminescence assay, 72 hours of treatment, read-out: Intracellular L. donovani amastigotes Lum IC50; for Selectivity 24h LC50 / Lum IC50: host-directed effect vs cytotoxicity. Put shortly:
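PMA-differentiated THP-1 macrophages (150 nM, 72 h) were infected 18 h with firefly luciferase-expressing L. donovani LV82 promastigotes, then washed. Infected cells were treated with compounds at 0.1-10 μM for 72 h. Surviving intracellular amastigotes were quantified by firefly luciferase luminescence after cell lysis and 10 min substrate incubation at room temperature.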

Series [5] shares this test system. Put plainly: Image-based (Giemsa staining) evaluation of intracellular anti-leishmanial activity in bone marrow derived macrophages. The class given is cell-based, Leishmania donovani. As to conditions: Leishmania donovani, Macrophage. The protocol:
Bone marrow derived macrophages (BMDMs) were isolated from BALB/c mice and cultured as previously described. […] Completely differentiated BMDMs are obtained after 7 days of culture with media change every 2 days. Harvested cells were seeded onto 10 mm glass cover slips at 5 x 10^5 cells/ well of a 24 well plate in DMEM media (without LCM) and allowed to adhere overnight. […] After infection, cells were washed three times with fresh media to remove extracellular promastigotes and treated with compounds for a 72-hour incubation. BMDM cells were then washed with phosphate buffered saline, fixed with ice-cold methanol, and stained with Giemsa (5% v/v in water). The cover slips with stained cells are mounted onto glass slides and imaged on EVOS XL (100X, Thermo Fisher Scientific). Leishmania amastigotes per 100 macrophages were determined in a blinded manner.

For series [6], the system named is intracellular L. donovani in WT and Lys K/O BMDMs. Put plainly: 197 target validation: Giemsa staining in BMDMs from wild-type and lysozyme knockout mice. As to conditions: WT vs Lys K/O BMDMs. It counts as cell-based, Leishmania donovani. The text has this:
B6.129P2-Lyz2^tm1(cre)Ifo/J mice[23] (stock #004781, herein termed ‘Lys K/O’) were obtained from Jackson Laboratory. This strain has a nuclear-localized Cre recombinase inserted into the first coding ATG of the lysozyme 2 gene (Lyz2) which eliminates endogenous Lyz2 gene function. Wildtype C57BL6/J mice (stock #000664) were obtained as a control.
Bone marrow derived macrophages (BMDMs) were isolated from both mice and cultured as described above in “Image-based Evaluation of Intracellular Anti-Leishmanial Activity”. BMDMs were seeded onto glass cover slips, infected with LV82 L. donovani at a multiplicity of infection of 1:10. Cells were washed to remove extracellular promastigotes and treated with compounds (197, amphotericin B) for a 72-hour incubation. BMDM cells were then washed with phosphate buffered saline, fixed with ice-cold methanol, and stained with Giemsa (5% v/v in water). The cover slips with stained cells are mounted onto glass slides and imaged on EVOS XL (100X, Thermo Fisher Scientific). Leishmania amastigotes per 100 macrophages were determined in a blinded manner.

Series [7] relates to intracellular L. mexicana amastigotes. As to the kind of experiment: microbe, parasite or virus in culture. It counts as cell-based, Leishmania mexicana. The note with it: Leishmania mexicana, Macrophage, bone marrow derived macrophages, Giemsa staining. Here is the method:
Bone marrow derived macrophages (BMDMs) were isolated from BALB/c mice and cultured as previously described. Briefly, bone marrow was harvested from long bones of mice and the isolated cells were seeded at a concentration of 2 x 10^6 cells/mL in petri dishes with RPMI media supplemented with 10% FBS, 1% Penn-Strep and 10% L929 conditioned media (LCM). Completely differentiated BMDMs are obtained after 7 days of culture with media change every 2 days. Harvested cells were seeded onto 10 mm glass cover slips at 5 x 10^5 cells/ well of a 24 well plate in DMEM media (without LCM) and allowed to adhere overnight. BMDM cells are then infected overnight with LV82 L. donovani or L. mexicana (NR-51210) at a multiplicity of infection of 10. After infection, cells were washed three times with fresh media to remove extracellular promastigotes and treated with compounds for a 72-hour incubation. BMDM cells were then washed with phosphate buffered saline, fixed with ice-cold methanol, and stained with Giemsa (5% v/v in water). The cover slips with stained cells are mounted onto glass slides and imaged on EVOS XL (100X, Thermo Fisher Scientific). Leishmania amastigotes per 100 macrophages were determined in a blinded manner.

[8] abbreviates: resazurin assay (Table 3), read-out: L. donovani Extracellular promastigotes MIC50.
Where [9] appears, read: resazurin assay, read-out: Extracellular L. donovani promastigotes MIC50.
Setting [10] is: 72 h, Giemsa staining, 72-hour incubation, read-out: Intracellular L. donovani amastigotes IC50.
The mark [11] stands for this setting: Giemsa staining (Table 3), read-out: L. donovani Intracellular amastigotes IC50.

`N#Cc1cccc(CN2CCC(Nc3ccc(-n4nc(C(F)(F)F)cc4-c4ccc(-c5ccc(C(F)(F)F)cc5)cc4)cc3)C2)c1` (stereo not shown) [Compound 53]: the MIC50 in series [1] (setting [8]), in series [1] (setting [9]) and in series [3] was more than 200 µM in each case. In addition, in series [1] (resazurin assay, strain not named for 53, L. donovani for 197), the “direct effect on extracellular promastigote viability” value is “no direct effects”. In series [2], the CC50 at 24 h was more than 50 µM. Besides, the CC50 at 72 h in series [2] is more than 300 µM. Besides, the cytotoxic concentration (CC50) with THP-1 macrophages is more than 300 µM. Besides, the “reduction in macrophage viability” value in the series on THP-1 macrophages (72hr incubation up to 300μM) was “Neither compound had any reduction”. Also, the IC50 in series [4] was 0.4 µM; in series [5] (setting [10]) it was 1.1 µM; in series [5] (setting [11]), less than 2 µM. In addition, in series [4], the “Selectivity 24h LC50 / Lum IC50” value is recorded as more than 112.6.
`C[C@@H]1[C@H](O)[C@@H](C)/C=C/C=C/C=C/C=C/C=C/C=C/C=C/[C@H](O[C@@H]2O[C@H](C)[C@@H](O)[C@H](N)[C@@H]2O)C[C@@H]2O[C@](O)(C[C@@H](O)C[C@@H](O)[C@H](O)CC[C@@H](O)C[C@@H](O)CC(=O)O[C@H]1C)C[C@H](O)[C@H]2C(=O)O` [Amphotericin B, reference compound]: the “anti-leishmanial activity in Lys K/O BMDMs” value in series [6] is “retained its anti-leishmanial activity”.
As to `NCC(=O)Nc1ccc(-n2nc(C(F)(F)F)cc2-c2ccc3c(ccc4ccccc43)c2)cc1` [AR-12, reference compound], the MIC50 turned out to be 2.2 µM (≈ 1.01 µg/mL) in series [1] (setting [8]), 2.2 µM (≈ 1.01 µg/mL) in series [1] (setting [9]) and 15.1 µM (≈ 6.95 µg/mL) in series [3]. In addition, the half-maximal inhibitory concentration (IC50) came out at 1.5 µM in series [7], 2.2 µM in series [5] (setting [10]) and 2.2 µM in series [5] (setting [11]). In series [2], this molecule came in with a half-maximal cytotoxic concentration (CC50) at 24 h of 13.3 µM. In addition, in series [2], the CC50 at 72 h came to 8.6 µM.
Turning to `N#Cc1ccc(CNCC(=O)Nc2ccc(-n3nc(C(F)(F)F)cc3C3CCCCC3)cc2)cc1` [Compound 354], the values for the MIC50 in series [1] (setting [8]), in series [1] (setting [9]) and in series [3] were 22.1 µM (≈ 10.6 µg/mL), 22.1 µM (≈ 10.6 µg/mL) and 30.7 µM (≈ 14.8 µg/mL), respectively. For the same molecule, the IC50 was 3.5 µM in series [7], 0.5 µM in series [4], 0.4 µM in series [5] (setting [10]) and 0.4 µM in series [5] (setting [11]). This molecule returned a CC50 at 24 h in series [2] of 22 µM. Further, the midpoint of cytotoxicity in series [2], the CC50 at 72 h, lay at 20.2 µM. Also, in series [4], the “Selectivity 24h LC50 / Lum IC50” value came to 44.9.

In general, MIC50 refers to the lowest concentration that inhibits either 50% of growth or 50% of the strains tested, depending on the study. For orientation: CC50 means the concentration that lowers cell viability or growth by half. By IC50 is commonly meant the concentration that gives 50% inhibition.
